In assay [1] the target is T1, HIV-1 RT wild type (WT) (Human immunodeficiency virus type 1 group M subtype B, UniProt P04585).
T1 construct: Heterodimeric RT was eluted using a descending gradient; made in house; host or cells: E. coli
Put plainly: Reverse Transcriptase (RT) assay, wild type enzyme. It counts as biochemical. The text has this:
(§1) Among the enzymes for which Human Immunodeficiency Virus (HIV-1) encodes is a reverse transcriptase (1), so-named because it transcribes a DNA copy from an RNA template. This activity can be quantitatively measured in a cell-free enzyme assay, which has been previously described (2), and is based upon the observation that reverse transcriptase is able to use a synthetic template poly r(C) primed with oligo d(G) to transcribe a radio-labelled, acid-precipitable DNA strand utilising ^3H-dGTP as a substrate. The assay described below utilises the wild type (WT) enzyme, which is the predominant form of the enzyme observed with patients infected with HIV-1. Utilisation of mutant RT enzymes (for example, Y181C, prepared by site-directed mutagenesis in which the tyrosine residue at codon 181 has been replaced by a cysteine residue, or the mutants K103N, V106A and Y188C) and analogous assay conditions allows compounds to be evaluated for their effectiveness at inhibiting the mutant enzymes.
(§2) The HIV-1 RT expression clone, pKRT2, was obtained from Yale University (3). An overnight culture, grown in 2×YT medium (37° C., 225 rpm) (4), supplemented with 100 μg/mL ampicillin for positive selection was used to inoculate the 2×YT medium. The culture was incubated (37° C., 225 rpm) until it reached an OD600 of 0.6-0.9. At that time, the repressor inhibitor IPTG (isopropyl P-D-thiogalactopyranoside) was added to 0.5 mM, and the mixture was incubated for an additional 2 hours.
(§3) Purification of recombinant reverse transcriptase was performed using a combination of methods previously described (5). This procedure is summarised briefly as follows: E. Coli containing RT-1 wt or RT-1 (Y181 C) were suspended in 50 mM MES, pH 6.0 containing 10% glycerol, lysed in a French press, centrifuged, and the supernates discarded. Lysate pellets were extracted with buffer A (50 mM MES, pH 6.0, 100 mM KCl, 50 mM KPi, 10% glycerol, 0.02% hexyl-β-glucoside), and re-centrifuged; nucleic acid in supernates was precipitated with 0.1% polyethylenimine. […] Bound RT was eluted with a gradient of 0 to 1.0M
(§4) (NH4)2 SO4 in buffer B. Heparin-Sepharose fractions containing RT were concentrated (Amicon YM-30 membrane), combined with equal volumes of 2.0M (NH4)2SO4 in buffer B and injected onto a 21.5×150 mm TSK Phenyl-5PW HIC HPLC column (Phenomenex). Heterodimeric RT was eluted using a descending gradient of 1.0M to 0M (NH4)2SO4 in buffer B, concentrated, and stored at 4° C.
(§5) The 2.4× concentrated stock reaction mixture was aliquoted and stored at −20° C. The mixture is stable and can be thawed for use in each assay. This enzyme assay has been adapted to a 96 well microtiter plate system, and has been previously described (6). Tris buffer (50 mM, pH 7.8), vehicle (solvent diluted to match the compound dilution), or compounds in vehicle were dispensed into 96-well microtiter plates (10 μL/well; 3 wells/compound). The HIV-1 RT enzyme was thawed, diluted in 50 mM Tris pH 7.8 containing 0.05% Chaps to give 1.5 nM enzyme and 25 μL were dispensed per well. Ten μL of 0.5M EDTA were added to the first three wells of the microtiter plate. EDTA chelates the Mg^2+ present and prevents reverse transcription. This group served as background polymerisation, which was subtracted, from all other groups. Twenty-five μl of the 2.4× reaction mixture was added to all wells and the assay was allowed to incubate at room temperature for 30 minutes. The assay was terminated by precipitating the DNA in each well with 60 μL of sodium pyrophosphate (2% w/v) in 10% trichloroacetic acid (TCA) (10% w/v). The microtiter plate was incubated for 15 minutes at 4° C. and the precipitate was harvested onto #30 glass fibre paper (Schleicher & Schuell) using a Tomtech 96-well harvester. The filters were dried, placed in plastic bags with Betaplate scintillation cocktail (Pharmacia/LKB) and counted in the Betaplate counter (Pharmacia/LKB).
(§6) The calculation for percent inhibition is as follows: [formula] […]

For assay [2], the target named is T2, HIV-1 RT double mutant K103N/Y181C (Human immunodeficiency virus type 1 group M subtype B, UniProt P04585, K690N/Y768C).
T2 construct: Heterodimeric RT was eluted using a descending gradient; made in house; host or cells: E. coli (inferred; the text describes only wild type and Y181C preparations)
Put plainly: Reverse Transcriptase (RT) assay, double mutant enzyme. It counts as biochemical.
Source text: as §1, §2, §3, §4, §5, §6

Assay [3] deals with HIV replication in T-lymphocytes, virus coding for mutant enzyme K103N/Y181C. Put plainly: ELISA (p24) assay for activity in cell culture, mutant virus. The class given is cell-based. The note with it: Human immunodeficiency virus 1, T-lymphocyte, read-out: EC50 K103N/Y181C. The method, then:
(§7) ELISA Assay for Assessment of Activity in Cell Culture
(§8) Compounds of the invention were tested for their ability to inhibit HIV replication in cell culture. Viruses coding for Wild type and mutant enzymes were used. T-lymphocytes were infected with the virus, infected cells were incubated in the presence of varying amounts of compounds of the invention, and an ELISA assay for the viral protein p24 was used to quantify viral replication. Table 9 lists the results as EC50 (nM).

In assay [4] the test system is HIV replication in T-lymphocytes, virus coding for wild type enzyme. Put plainly: ELISA (p24) assay for activity in cell culture, wild type virus. The class given is cell-based. The note with it: Human immunodeficiency virus 1, T-lymphocyte, read-out: EC50 WT RT. How it is done:
as §7, §8

SMILES strings stand for the structures.

Broadly, the IC50 is the concentration that inhibits the measured activity by half. For the compound `CCN1c2ncc(CCOc3cccc4c3CS(=O)(=O)N4CC(=O)Nc3cc[n+]([O-])cc3)cc2C(=O)N(C)c2cccnc21` [Compound 141], the IC50 in assay [1] and in assay [2] was < 100 nM each time. Also, the EC50 in assay [3] and in assay [4] was < 100 nM each time.

In the case of `CCN1c2ncc(CCOc3cccc4c3CS(=O)(=O)N4CC(=O)Nc3cc[n+]([O-])cc3)cc2C(=O)Nc2c(C)cc(Cl)nc21` [Compound 147], the IC50 in assay [1] and in assay [2] was < 100 nM throughout. Besides, the EC50 in assay [3] and in assay [4] was < 100 nM throughout.

For the compound `CCN1c2ncc(CCOc3cccc4c3CNS4(=O)=O)cc2C(=O)N(C)c2cccnc21` [Compound 202], the IC50 in assay [1] and in assay [2] was < 100 nM throughout. In addition, the EC50 in assay [3] and in assay [4] was < 100 nM each time.

In the case of `CCN1c2ncc(CCOc3cccc4c3CNS4(=O)=O)cc2C(=O)Nc2c(C)cc(F)nc21` [Compound 223], the IC50 in assay [1] and in assay [2] was < 100 nM in each case. In addition, the EC50 in assay [3] and in assay [4] was < 100 nM throughout.

Turning to `CCN1c2ncc(CCOc3ccc4c(c3)C(C)(C)NS4(=O)=O)cc2C(=O)Nc2c(C)ccnc21` [Compound 311], the IC50 is < 100 nM in assay [1] and 100 to 1000 nM in assay [2]. In addition, the EC50 in assay [3] and in assay [4] was < 100 nM each time.

Consider `CCN1c2ncc(CCOc3cccc4c3CCS(=O)(=O)N4)cc2C(=O)N(C)c2cccnc21` [Compound 601], for which the IC50 in assay [1] and in assay [2] was < 100 nM throughout. The EC50 in assay [3] and in assay [4] was < 100 nM each time.

`CCN1c2ncc(CCOc3cccc4c3CCS(=O)(=O)N4)cc2C(=O)Nc2c(C)cc(F)nc21` [Compound 602]: the IC50 in assay [1] and in assay [2] was < 100 nM each time. In addition, the EC50 in assay [3] and in assay [4] was < 100 nM in each case.

`CCN1c2ncc(CCOc3cccc4c3CCS(=O)(=O)N4CC(=O)OC)cc2C(=O)N(C)c2cccnc21` [Compound 616]: the IC50 in assay [1] and in assay [2] was < 100 nM each time. Further, the EC50 in assay [3] and in assay [4] was < 100 nM in each case.

Consider `CCN1c2ncc(CCOc3cccc4c3CCS(=O)(=O)N4CCN3CCOCC3)cc2C(=O)N(C)c2cccnc21` [Compound 617], for which the half-inhibitory concentration (IC50) in assay [1] and in assay [2] was < 100 nM each time. The EC50 in assay [3] and in assay [4] was < 100 nM each time.

Take `CCN1c2ncc(CCOc3cccc4c3CCS(=O)(=O)N4Cc3ccncc3)cc2C(=O)N(C)c2cccnc21` [Compound 621]: the IC50 in assay [1] and in assay [2] was < 100 nM in each case. In addition, the EC50 in assay [3] and in assay [4] was < 100 nM each time.

`CCN1c2ncc(CCOc3cccc4c3CCS(=O)(=O)N4CCCC(=O)O)cc2C(=O)N(C)c2cccnc21` [Compound 625]: the IC50 in assay [1] and in assay [2] was < 100 nM each time. In addition, the EC50 in assay [3] and in assay [4] was < 100 nM in each case.

On to `CCOC(=O)CCCN1c2cccc(OCCc3cnc4c(c3)C(=O)N(C)c3cccnc3N4CC)c2CCS1(=O)=O` [Compound 628], for which the IC50 in assay [1] and in assay [2] was < 100 nM each time. In addition, the EC50 in assay [3] and in assay [4] was < 100 nM each time.

As to `CCN1c2ncc(CCOc3cccc4c3CCS(=O)(=O)N4Cc3cccnc3)cc2C(=O)N(C)c2cccnc21` [Compound 629], the IC50 in assay [1] and in assay [2] was < 100 nM in each case. Moreover, the EC50 in assay [3] and in assay [4] was < 100 nM each time.

On to `CCN1c2ncc(CCOc3cccc4c3CCS(=O)(=O)N4CCCS(N)(=O)=O)cc2C(=O)N(C)c2cccnc21` [Compound 630], for which the IC50 in assay [1] and in assay [2] was < 100 nM throughout. In addition, the EC50 in assay [3] and in assay [4] was < 100 nM each time.

Consider `CCN1c2ncc(CCOc3cccc4c3CCS(=O)(=O)N4CC(=O)NS(C)(=O)=O)cc2C(=O)N(C)c2cccnc21` [Compound 631], for which the IC50 in assay [1] and in assay [2] was < 100 nM throughout. In addition, the EC50 in assay [3] and in assay [4] was 100 to 1000 nM throughout.

On to `CCN1c2ncc(CCOc3cccc4c3CCS(=O)(=O)N4CCCC(=O)NN)cc2C(=O)N(C)c2cccnc21` [Compound 636], for which the IC50 in assay [1] and in assay [2] was < 100 nM throughout. Also, the EC50 in assay [3] and in assay [4] was < 100 nM in each case.

Turning to `CCN1c2ncc(CCOc3cccc4c3CCS(=O)(=O)N4CC(=O)NC(C)(C)C(=O)O)cc2C(=O)N(C)c2cccnc21` [Compound 637], the IC50 in assay [1] and in assay [2] was < 100 nM in each case. Further, the EC50 in assay [3] and in assay [4] was < 100 nM each time.

`CCN1c2ncc(CCOc3cccc4c3CCS(=O)(=O)N4CC(=O)NC3(C(=O)O)CC3)cc2C(=O)N(C)c2cccnc21` [Compound 638]: the IC50 in assay [1] and in assay [2] was < 100 nM each time. Further, the EC50 in assay [3] and in assay [4] was < 100 nM throughout.

`CCN1c2ncc(CCOc3cccc4c3CCS(=O)(=O)N4CCOC(N)=O)cc2C(=O)N(C)c2cccnc21` [Compound 639]: the IC50 in assay [1] and in assay [2] was < 100 nM throughout. The EC50 in assay [3] and in assay [4] was < 100 nM in each case.

Take `CCN1c2ncc(CCOc3cccc4c3CCS(=O)(=O)N4CCCC(=O)NNCC(F)(F)F)cc2C(=O)N(C)c2cccnc21` [Compound 640]: the IC50 in assay [1] and in assay [2] was < 100 nM in each case. In addition, the EC50 in assay [3] and in assay [4] was < 100 nM each time.

Turning to `CCN1c2ncc(CCOc3cccc4c3CCS(=O)(=O)N4CC(=O)NC(C)(C)C(=O)NN)cc2C(=O)N(C)c2cccnc21` [Compound 641], the IC50 in assay [1] and in assay [2] was < 100 nM throughout. For the same compound, the EC50 in assay [3] and in assay [4] was < 100 nM throughout.

As for `CCN1c2ncc(CCOc3cccc4c3CCN(CCCC(=O)O)S4(=O)=O)cc2C(=O)N(C)c2cccnc21` [Compound 713], the IC50 in assay [1] and in assay [2] was < 100 nM throughout. Besides, the EC50 in assay [3] and in assay [4] was < 100 nM each time.

As for `CCN1c2ncc(CCOc3cccc4c3CCN(CCCC(=O)NN)S4(=O)=O)cc2C(=O)N(C)c2cccnc21` [Compound 714], the IC50 in assay [1] and in assay [2] was < 100 nM throughout. Also, the EC50 in assay [3] and in assay [4] was < 100 nM throughout.

For `CCN1c2ncc(CCOc3cccc4c3C=CS(=O)(=O)N4C)cc2C(=O)N(C)c2cccnc21` [Compound 803], the IC50 in assay [1] and in assay [2] was < 100 nM in each case. For the same compound, the EC50 in assay [3] and in assay [4] was < 100 nM throughout.
